Values of other authors, collected in US20030170847A1, “Genes involved in isoprenoid compound production” (priority 2001, published 2003).

Legend:
[1] = system: nonphotosynthetic bacterial CrtY-type of lycopene cyclases; settings: Cunningham et al., The Plant Cell 1994
[2] = system: CrtL-type of lycopene cyclases; settings: Cunningham et al., The Plant Cell 1994

| SMILES | inhibition of CrtY-type of lycopene cyclases [1] | inhibition of CrtL-type of lycopene cyclases [2] |
| --- | --- | --- |
| CCN(CC)CCSc1ccc(Cl)cc1.Cl [CPTA, 2-(4-chlorophenylthio)-triethylamine hydrochloride] | not | specifically inhibit |
| CCN(CC)CCOc1ccc(C)cc1.Cl [MPTA, 2-(4-methylphenoxy)-triethylamine hydrochloride] | not | specifically inhibit |
